Melting point data for 49 compounds are collected here from patent US7384949B2, “Thieno(3,2-d)pyrimidines and furano(3,2-d)pyrimidines and their use as purinergic receptor antagonists” (Vernalis Research Limited, priority 2001, dated 2008).

The structures appear in SMILES notation.

For orientation: melting point means the temperature, or range, at which the solid turns liquid. In turn, `Clc1nc(-c2cnccn2)c2sccc2n1` [Example 30, 2-chloro-4-(2-pyrazinyl)thieno[3,2-d]pyrimidine] came in with a melting point of 183.2 to 183.8 °C.
Take `CN(C)c1nc(-c2ccsc2)c2sccc2n1` [Example 157, N,N-dimethyl-4-(3-thienyl)thieno[3,2-d]pyrimidine-2-amine]: the melting point is 119 to 119.4 °C.
The figure for `CCc1nc(-c2nc3ccccc3s2)c2sccc2n1` [Example 122, 4-(2-benzothiazolyl)-2-ethylthieno[3,2-d]pyrimidine] is 131 °C; for `Clc1nc(-c2ccsc2)c2sccc2n1` [Example 156, 2-chloro-4-(3-thienyl)thieno[3,2-d]pyrimidine] it is 117.7 to 118.2 °C; for `CN(C)c1nc(-c2ccco2)c2scc(N)c2n1` [Example 51, 7-amino-N,N-dimethyl-4-(2-furyl)thieno[3,2-d]pyrimidine-2-amine] it is 145.8 to 146.5 °C.
The result for `OC[C@H]1CCCN1c1nc(-c2ccco2)c2scc(Br)c2n1` [Example 72, (2R)-7-bromo-4-(2-furyl)-2-(2-hydroxymethylpyrrolidin-1-yl)thieno[3,2-d]pyrimidine] reads 75.4 to 76.3 °C.
The figure for `CN(C)c1nc(-c2nccn2COCC[Si](C)(C)C)c2sccc2n1` is 131 to 132 °C.
`CN(C)c1nc(-c2nccn2CCO)c2sccc2n1` [Example 178, N,N-dimethyl-4-(1-(2-hydroxyethyl)-1H-imidazol-2-yl)thieno[3,2-d]pyrimidine-2-amine]: the melting point is 162.2 to 164.9 °C.
As to `OC[C@H]1CCCN1c1nc(-c2ccco2)c2sccc2n1` [Example 38, (2R)-4-(2-furyl)-2-(2-hydroxymethylpyrrolidin-1-yl)thieno[3,2-d]pyrimidine], the melting point fell in the range of 109 to 110 °C.
The result for `Clc1nc(-c2cc3ccccc3s2)c2sccc2n1` [Example 17, 4-(2-benzothiophenyl)-2-chlorothieno[3,2-d]pyrimidine] reads 231 to 231.6 °C.
The figure for `CCc1nc(-c2ccco2)c2sc(C)cc2n1` [Example 188, 2-ethyl-4-(2-furyl)-6-methylthieno[3,2-d]pyrimidine] is 104.7 to 104.8 °C.
The result for `Cc1csc2c(-c3ccco3)nc(NCCO)nc12` [Example 16, 4-(2-furyl)-N-(2-hydroxyethyl)-7-methylthieno[3,2-d]pyrimidine-2-amine] reads 149.9 to 150.6 °C.
The compound `CN(C)c1nc(-c2ccco2)c2scc(Br)c2n1` [Example 22, 7-bromo-N,N-dimethyl-4-(2-furyl)thieno[3,2-d]pyrimidine-2-amine] came in with a melting point of 118.7 to 119.5 °C.
The figure for `COc1ccc(CNc2nc(-c3ccco3)c3sccc3n2)cc1OC` [Example 78, N-(3,4-dimethoxybenzyl)-4-(2-furyl)thieno[3,2-d]pyrimidine-2-amine] is 155 to 156 °C; for `Cn1nccc1-c1nc(Cl)nc2ccsc12` [Example 182, 2-chloro-4-(1-methyl-1H-pyrazol-5-yl)thieno[3,2-d]pyrimidine] it is 141 to 142 °C; for `Cc1nc(-c2nc(Cl)nc3ccsc23)sc1C` [Example 103, 2-chloro-4-(4,5-dimethyl-2-thiazolyl)thieno[3,2-d]pyrimidine] it is 240 to 241 °C.
Regarding `FC(F)(F)c1nc(-c2ccco2)c2sccc2n1` [Example 11, 4-(2-furyl)-2-trifluoromethylthieno[3,2-d]pyrimidine], the melting point was in the range of 147.6 to 148.8 °C.
As to `CN(C)c1nc(-c2ccccc2)c2sccc2n1` [Example 159, N,N-dimethyl-4-phenylthieno[3,2-d]pyrimidine-2-amine], the melting point fell in the range of 112.9 to 114.1 °C.
Consider `COc1ccc(CNc2nc(-c3nccs3)c3sccc3n2)cc1OC` [Example 108, N-(3,4-dimethoxybenzyl)-4-(2-thiazolyl)thieno[3,2-d]pyrimidine-2-amine], for which the melting point lay within 178.7 to 179.5 °C.
The figure for `CN(C)c1nc(-c2ccco2)c2scc([N+](=O)[O-])c2n1` [Example 44, N,N-dimethyl-4-(2-furyl)-7-nitrothieno[3,2-d]pyrimidine-2-amine] is 182.8 to 183.8 °C; for `C[Si](C)(C)CCOCn1cc(-c2nc(Cl)nc3ccsc23)cn1` it is 108 to 109 °C.
The figure for `CC(=O)Nc1csc2c(-c3ccco3)nc(N(C)C)nc12` [Example 56, N-(2-dimethylamino-4-(2-furyl)thieno[3,2-d]pyrimidine-7-yl)acetamide] is 210.9 to 211.3 °C; for `Clc1nc(-c2ccccn2)c2sccc2n1` [Example 24, 2-chloro-4-(2-pyridyl)thieno[3,2-d]pyrimidine] it is 209.2 to 209.5 °C.
`Cc1ccc(-c2nc(Cl)nc3ccsc23)nc1` [Example 109, 2-chloro-4-(5-methyl-2-pyridyl)thieno[3,2-d]pyrimidine] had a melting point of 221 to 222 °C.
`CCOC(=O)Cn1ccnc1-c1nc(N(C)C)nc2ccsc12` [Example 177, N,N-dimethyl-4-((1-ethoxycarbonylmethyl)-1H-imidazol-2-yl)thieno[3,2-d]pyrimidine-2-amine] displayed a melting point of 209 to 210 °C.
The figure for `Clc1nc(-c2ccccc2)c2sccc2n1` [Example 158, 2-chloro-4-phenylthieno[3,2-d]pyrimidine] is 146.5 to 147.2 °C.
The result for `Cc1cnc(-c2nc(Cl)nc3ccsc23)s1` [Example 102, 2-chloro-4-(5-methyl-2-thiazolyl)thieno[3,2-d]pyrimidine] reads 243 to 244 °C; that for `C=CCNc1nc(-c2nccs2)c2sccc2n1` [Example 112, N-allyl-4-(2-thiazolyl)thieno[3,2-d]pyrimidine-2-amine], 128 to 129 °C.
As for `CCSc1nc(-c2ccco2)c2sccc2n1` [Example 37, 2-ethylthio-4-(2-furyl)thieno[3,2-d]pyrimidine], the melting point was in the range of 207 to 208 °C.
The result for `CCc1nc(-c2nncn2C)c2sccc2n1` [Example 187, 2-ethyl-4-(4-methyl-4H-1,2,4-triazol-3-yl)thieno[3,2-d]pyrimidine] reads 110.2 to 111.4 °C.
The figure for `CCc1nc(-c2nncn2COCC[Si](C)(C)C)c2sccc2n1` is below 100 °C; for `OC[C@H]1CCCN1c1nc(-c2cccs2)c2sccc2n1` [Example 4, (2R)-2-(2-hydroxymethylpyrrolidin-1-yl)-4-(2-thienyl)thieno[3,2-d]pyrimidine] it is 128.5 to 128.9 °C.
The figure for `NC(=O)c1nc(-c2ccco2)c2sccc2n1` [Example 155, 4-(2-furyl)thieno[3,2-d]pyrimidine-2-carboxamide] is 300 °C (dec.); for `CN(C)c1nc(-c2ccnn2C)c2sccc2n1` [Example 184, N,N-dimethyl-4-(1-methyl-1H-pyrazol-5-yl)thieno[3,2-d]pyrimidine-2-amine] it is 126.5 to 127 °C; for `CS(=O)(=O)Nc1csc2c(-c3ccco3)nc(Cl)nc12` [Example 59, N-(2-chloro-4-(2-furyl)thieno[3,2-d]pyrimidine-7-yl)methanesulphonamide] it is 211.9 °C.
With `CC(=O)Nc1nc(-c2nccs2)c2sccc2n1` [Example 116, N-(4-(2-thiazolyl)thieno[3,2-d]pyrimidin-2-yl)acetamide], the melting point lay within 242.6 to 243.9 °C.
Compound `OCCNc1nc(-c2cnccn2)c2sccc2n1` [Example 34, N-(2-hydroxyethyl)-4-(2-pyrazinyl)thieno[3,2-d]pyrimidine-2-amine] gave a melting point of 191.5 to 192.4 °C.
The figure for `CN(C)c1nc(-c2ccco2)c2scc(NC(=O)Nc3ccccc3)c2n1` [Example 55, N-(2-dimethylamino-4-(2-furyl)thieno[3,2-d]pyrimidine-7-yl)-N′-phenylurea] is 244.4 to 244.9 °C; for `CC(=O)Nc1nc(-c2ccco2)c2sccc2n1` [Example 101, N-(4-(2-furyl)thieno[3,2-d]pyrimidin-2-yl)acetamide] it is 193.9 to 195 °C; for `CCc1nc(-c2ncc(-c3ccccc3)o2)c2sccc2n1` [Example 106, 2-ethyl-4-(5-phenyl-2-oxazolyl)thieno[3,2-d]pyrimidine] it is 170 to 170.5 °C.
The result for `O=[N+]([O-])c1cc2nc(Cl)nc(-c3ccco3)c2s1` [Example 162, 2-chloro-4-(2-furyl)-6-nitrothieno[3,2-d]pyrimidine] reads 204 to 204.9 °C.
For `CCc1nc(-c2nccn2COC)c2sccc2n1` [Example 179, 2-ethyl-4-(1-methoxymethyl-1H-imidazol-2-yl)thieno[3,2-d]pyrimidine], the melting point was 69 to 70 °C.
The figure for `Clc1nc(-c2ccco2)c2sccc2n1` [Example 3, 2-chloro-4-(2-furyl)thieno[3,2-d]pyrimidine] is 146.9 to 147.6 °C; for `CN(C)c1nc(-c2cnn(C)c2)c2sccc2n1` [Example 186, N,N-dimethyl-4-(1-methyl-1H-pyrazol-4-yl)thieno[3,2-d]pyrimidine-2-amine] it is 175.4 to 175.9 °C; for `OCCNc1nc(-c2cc3ccccc3s2)c2sccc2n1` [Example 20, 4-(2-benzothiophenyl)-N-(2-hydroxyethyl)thieno[3,2-d]pyrimidine-2-amine] it is 173.4 to 174.4 °C.
The result for `c1coc(-c2nc(Cc3cccs3)nc3ccsc23)c1` [Example 117, 4-(2-furyl)-2-(2-thienylmethyl)thieno[3,2-d]pyrimidine] reads 149 °C; that for `CN(C)c1nc(-c2ccco2)c2scc(NC(=O)c3ccccc3)c2n1` [Example 57, N-(2-dimethylamino-4-(2-furyl)thieno[3,2-d]pyrimidine-7-yl)benzamide], 192.2 to 192.8 °C.
Take `Cc1csc2c(-c3ccco3)nc(Cl)nc12` [Example 12, 2-chloro-4-(2-furyl)-7-methylthieno[3,2-d]pyrimidine]: the melting point is 164.4 to 164.9 °C.
The result for `Clc1nc(-c2ccoc2)c2sccc2n1` [Example 160, 2-chloro-4-(3-furyl)thieno[3,2-d]pyrimidine] reads 129.3 to 129.9 °C.
